Entries after “also recorded” stand apart in the source; their conditions may differ.
Experiments:
[1] = tested on: pups derived from HDAC inhibitor-treated SCNT-derived embryos; assay: Body and placental weights of cloned pups at term; assay type: in vivo, mouse; conditions: 19.5 dpc, mean ± SD
[2] = tested on: mouse SCNT-derived embryos; assay: In vitro development of SCNT-derived embryos treated with HDAC inhibitors; assay type: cell-based
[3] = tested on: parthenogenetic embryos (zygotic gene activation); assay: Transcriptional activity; assay type: cell-based, mouse; conditions: 2 mM EU from 5 h to 24 h after activation
[4] = tested on: mouse SCNT-derived embryos; assay: In vivo development of SCNT-derived embryos, morula/blastocyst transfer; conditions: 8 h treatment
[5] = tested on: mouse SCNT-derived embryos; assay: In vivo development of SCNT-derived embryos, two-cell transfer; conditions: for No. of implantations / No. of offspring / No. of placentas only / implantations (%) / offspring (%) / placentas only (%): 8 h treatment, two-cell transfer
[6] = tested on: mouse SCNT-derived embryos; conditions: cited from earlier work
[7] = inhibitor treatment 8 h, Table 4

**Q.** For `O=C(CCCCC[C@@H]1NC(=O)[C@H]2CCCN2C(=O)[C@@H]2CCCCCCCCCC[C@@H](NC1=O)C(=O)N2)NO` [Ky-309], which “Body weight at term (g ± SD)” value [1] is on record?
**A.** The value was 1.61 ± 0.21 g.

**Q.** And the “Placental weight at term (g ± SD)” value [1]?
**A.** Its value is 0.31 ± 0.05 g.

**Q.** And the “No. of two-cell embryos at 24 h” value ([2]; 0.5 nM, 8 h treatment, Table 2)?
**A.** The value was 251.

**Q.** And the “two-cell embryos at 24 h (%)” value ([2]; 0.5 nM, 8 h treatment, Table 2)?
**A.** Its value is 87.2%.

**Q.** What about the “No. of two-cell embryos at 24 h” value ([2]; 1 nM, 8 h treatment, Table 2) of the same compound?
**A.** Its value is 190.

**Q.** And the “two-cell embryos at 24 h (%)” value ([2]; 1 nM, 8 h treatment, Table 2)?
**A.** The value was 76.9%.

**Q.** What about the “No. of four-cell embryos at 48 h” value ([2]; 5 nM, 8 h treatment, Table 1) of the same compound?
**A.** Its value is 89.

**Q.** What about the “No. of morula/blast at 72 h” value ([2]; 5 nM, 8 h treatment, Table 1) of the same compound?
**A.** Its value is 61.

**Q.** What about the “No. of two-cell embryos at 24 h” value ([2]; 5 nM, 8 h treatment, Table 1) of the same compound?
**A.** The value was 106.

**Q.** And the “four-cell embryos at 48 h (% per 2 cells)” value ([2]; 5 nM, 8 h treatment, Table 1)?
**A.** The value was 84.0%.

**Q.** And the “morula/blast at 72 h (% per 2 cells)” value ([2]; 5 nM, 8 h treatment, Table 1)?
**A.** The value was 57.5%.

**Q.** And the “two-cell embryos at 24 h (%)” value ([2]; 5 nM, 8 h treatment, Table 1)?
**A.** The value was 93.8%.

**Q.** And the “No. of two-cell embryos at 24 h” value ([2]; 5 nM, 8 h treatment, Table 2)?
**A.** Its value is 66.

**Q.** What about the “two-cell embryos at 24 h (%)” value ([2]; 5 nM, 8 h treatment, Table 2) of the same compound?
**A.** Its value is 90.4%.

**Q.** And the “No. of four-cell embryos at 48 h” value ([2]; 100 nM, 8 h treatment, Table 1)?
**A.** Its value is 27.

**Q.** What about the “No. of morula/blast at 72 h” value ([2]; 100 nM, 8 h treatment, Table 1) of the same compound?
**A.** The value was 6.

**Q.** What about the “No. of two-cell embryos at 24 h” value ([2]; 100 nM, 8 h treatment, Table 1) of the same compound?
**A.** Its value is 58.

**Q.** What about the “four-cell embryos at 48 h (% per 2 cells)” value ([2]; 100 nM, 8 h treatment, Table 1) of the same compound?
**A.** The value was 46.6%.

**Q.** What about the “morula/blast at 72 h (% per 2 cells)” value ([2]; 100 nM, 8 h treatment, Table 1) of the same compound?
**A.** The value was 10.3%.

**Q.** And the “two-cell embryos at 24 h (%)” value ([2]; 100 nM, 8 h treatment, Table 1)?
**A.** Its value is 84.0%.

**Q.** What about the “developmental block / embryotoxicity in SCNT-derived embryos (in words)” value ([2]; treatment at the one-cell stage) of the same compound?
**A.** Its value is “embryonic toxicity; also recorded: moderate two-cell developmental block”.

**Q.** What about the “EU fluorescence intensity / effect on ZGA at the two-cell stage” value [3] of the same compound?
**A.** The value was “no adverse effects on ZGA”.

**Q.** What about the “No. of cloned offspring” value ([4]; 5 nM) of the same compound?
**A.** Its value is 0 (0).

**Q.** And the No. of implantations ([4]; 5 nM)?
**A.** The No. of implantations was 4.

**Q.** What about the “No. of placentas only” value ([4]; 5 nM) of the same compound?
**A.** The value was 0 (0).

**Q.** What about the “cloned offspring (%)” value ([4]; 5 nM) of the same compound?
**A.** Its value is 0 (0) %.

**Q.** And the “implantations (%)” value ([4]; 5 nM)?
**A.** The value was 19.0%.

**Q.** And the “placentas only (%)” value ([4]; 5 nM)?
**A.** The value was 0 (0) %.

**Q.** What about the “No. of cloned offspring” value ([4]; 100 nM) of the same compound?
**A.** Its value is 1.

**Q.** What about the No. of implantations ([4]; 100 nM) of the same compound?
**A.** Its No. of implantations is 4.

**Q.** What about the “No. of placentas only” value ([4]; 100 nM) of the same compound?
**A.** Its value is 1.

**Q.** What about the “cloned offspring (%)” value ([4]; 100 nM) of the same compound?
**A.** Its value is 16.7%.

**Q.** What about the “implantations (%)” value ([4]; 100 nM) of the same compound?
**A.** The value was 66.7%.

**Q.** What about the “placentas only (%)” value ([4]; 100 nM) of the same compound?
**A.** Its value is 16.7%.

**Q.** What about the No. of implantations ([5]; 0.5 nM) of the same compound?
**A.** The No. of implantations was 32.

**Q.** What about the No. of offspring ([5]; 0.5 nM) of the same compound?
**A.** The No. of offspring was 1.

**Q.** What about the “No. of placentas only” value ([5]; 0.5 nM) of the same compound?
**A.** Its value is 0 (0).

**Q.** What about the “implantations (%)” value ([5]; 0.5 nM) of the same compound?
**A.** The value was 38.1%.

**Q.** What about the “offspring (%)” value ([5]; 0.5 nM) of the same compound?
**A.** The value was 1.2%.

**Q.** What about the “placentas only (%)” value ([5]; 0.5 nM) of the same compound?
**A.** Its value is 0 (0) %.

**Q.** What about the No. of implantations ([5]; 1 nM) of the same compound?
**A.** The No. of implantations was 21.

**Q.** And the No. of offspring ([5]; 1 nM)?
**A.** The No. of offspring was 0 (0).

**Q.** What about the “No. of placentas only” value ([5]; 1 nM) of the same compound?
**A.** Its value is 0 (0).

**Q.** What about the “implantations (%)” value ([5]; 1 nM) of the same compound?
**A.** The value was 30.9%.

**Q.** What about the “offspring (%)” value ([5]; 1 nM) of the same compound?
**A.** The value was 0 (0) %.

**Q.** And the “placentas only (%)” value ([5]; 1 nM)?
**A.** Its value is 0 (0) %.

**Q.** What about the No. of implantations ([5]; 5 nM) of the same compound?
**A.** Its No. of implantations is 33.

**Q.** What about the No. of offspring ([5]; 5 nM) of the same compound?
**A.** Its No. of offspring is 1.

**Q.** What about the “No. of placentas only” value ([5]; 5 nM) of the same compound?
**A.** Its value is 2.

**Q.** And the “implantations (%)” value ([5]; 5 nM)?
**A.** Its value is 50.0%.

**Q.** And the “offspring (%)” value ([5]; 5 nM)?
**A.** Its value is 1.5%.

**Q.** What about the “placentas only (%)” value ([5]; 5 nM) of the same compound?
**A.** The value was 3.0%.

**Q.** Which “Body weight at term (g ± SD)” value [1] does the source give for `CC(/C=C/C(=O)NO)=C\[C@@H](C)C(=O)c1ccc(N(C)C)cc1` [TSA, trichostatin A, reference compound] here?
**A.** Its value is 1.57 ± 0.15 g.

**Q.** And the “Placental weight at term (g ± SD)” value [1]?
**A.** The value was 0.28 ± 0.07 g.

**Q.** And the “No. of four-cell embryos at 48 h” value ([2]; 5 nM, 8 h treatment, Table 1)?
**A.** The value was 45.

**Q.** What about the “No. of morula/blast at 72 h” value ([2]; 5 nM, 8 h treatment, Table 1) of the same compound?
**A.** Its value is 32.

**Q.** What about the “No. of two-cell embryos at 24 h” value ([2]; 5 nM, 8 h treatment, Table 1) of the same compound?
**A.** The value was 49.

**Q.** What about the “four-cell embryos at 48 h (% per 2 cells)” value ([2]; 5 nM, 8 h treatment, Table 1) of the same compound?
**A.** Its value is 91.8%.

**Q.** And the “morula/blast at 72 h (% per 2 cells)” value ([2]; 5 nM, 8 h treatment, Table 1)?
**A.** The value was 65.3%.

**Q.** What about the “two-cell embryos at 24 h (%)” value ([2]; 5 nM, 8 h treatment, Table 1) of the same compound?
**A.** The value was 76.5%.

**Q.** And the “No. of two-cell embryos at 24 h” value ([2]; 5 nM, 8 h treatment, Table 2)?
**A.** Its value is 133.

**Q.** What about the “two-cell embryos at 24 h (%)” value ([2]; 5 nM, 8 h treatment, Table 2) of the same compound?
**A.** Its value is 86.9%.

**Q.** What about the “Blastocysts at 96 h (% per two cells)” value [2, 7] of the same compound?
**A.** Its value is 68.2%.

**Q.** And the “Morulae at 96 h (% per two cells)” value [2, 7]?
**A.** Its value is 0 (0) %.

**Q.** And the “No. of embryos at 96 h, Blastocysts” value [2, 7]?
**A.** Its value is 15.

**Q.** And the “No. of embryos at 96 h, Morulae” value [2, 7]?
**A.** The value was 0 (0).

**Q.** And the “No. of four-cell embryos at 48 h” value [2, 7]?
**A.** The value was 19.

**Q.** And the “No. of two-cell embryos at 24 h” value [2, 7]?
**A.** Its value is 22.

**Q.** What about the “four-cell embryos at 48 h (% per two cells)” value [2, 7] of the same compound?
**A.** Its value is 86.4%.

**Q.** What about the “two-cell embryos at 24 h (%)” value [2, 7] of the same compound?
**A.** Its value is 100%.

**Q.** What about the “EU fluorescence intensity / effect on ZGA at the two-cell stage” value [3] of the same compound?
**A.** The value was “no adverse effects on ZGA”.

**Q.** What about the “pup rates per embryos transferred” value ([6]; mouse SCNT-derived embryos) of the same compound?
**A.** Its value is “more than 5%”.

**Q.** And the “No. of cloned offspring” value ([4]; 5 nM)?
**A.** The value was 1.

**Q.** What about the No. of implantations ([4]; 5 nM) of the same compound?
**A.** The No. of implantations was 6.

**Q.** What about the “No. of placentas only” value ([4]; 5 nM) of the same compound?
**A.** Its value is 0 (0).

**Q.** What about the “cloned offspring (%)” value ([4]; 5 nM) of the same compound?
**A.** Its value is 6.7%.

**Q.** And the “implantations (%)” value ([4]; 5 nM)?
**A.** The value was 40.0%.

**Q.** And the “placentas only (%)” value ([4]; 5 nM)?
**A.** The value was 0 (0) %.

**Q.** And the No. of implantations ([5]; 5 nM)?
**A.** Its No. of implantations is 69.

**Q.** And the No. of offspring ([5]; 5 nM)?
**A.** Its No. of offspring is 8.

**Q.** And the “No. of placentas only” value ([5]; 5 nM)?
**A.** The value was 3.

**Q.** What about the “implantations (%)” value ([5]; 5 nM) of the same compound?
**A.** The value was 63.3%.

**Q.** And the “offspring (%)” value ([5]; 5 nM)?
**A.** The value was 7.3%.

**Q.** And the “placentas only (%)” value ([5]; 5 nM)?
**A.** The value was 2.8%.

**Q.** And the “pup rates (birth rates of clones), range over both transfer series” value ([5]; morula/blastocyst and two-cell transfer experiments)?
**A.** Its value is 6.7–7.3%.

**Q.** With `CCCC(CCC)C(=O)O` [VPA, valproic acid] as the compound, how does the “effect on mouse SCNT” value [6] read?
**A.** Its value is “no effect”.

Source: publication PMC8335354 (Biology of Reproduction, 2021)
